Values of other authors as cited in patent publication US9072693B2 (priority 2005, dated 2015).

What was measured:
women with PMS [1] = settings: higher doses once or twice during the luteal phase (Miner 2002)
women with PMS [2] = system: women with PMS
psoriatic plaques = settings: topical (Lu et al. 1996)

In the case of `C=C1CC[C@H](O)C/C1=C/C=C1\CCC[C@]2(C)[C@@H]([C@H](C)CCCC(C)C)CC[C@@H]12` [cholecalciferol], the safety (10,000 IU daily for 5 months (Heaney)) is listed as “safe” and the “daily dose at which toxicity occurs” value (oral ingestion, daily (Vieth R)) is listed as 40,000 IU.
For `CNCCC(Oc1ccc(C(F)(F)F)cc1)c1ccccc1` (stereo not drawn) [fluoxetine], the “effect on PMS symptomatology” value (women with PMS [1]) is given as “effective in reducing symptomatology”.
For `O=C([O-])[O-].[Ca+2]` [calcium, calcium carbonate], the “reduction of overall PMS symptoms” value (women with PMS [2]; a number of studies, all 4 major categories of PMS) is given as 50% and the “overall reduction in total symptom scores compared to placebo” value (women with PMS [2]; elemental calcium 1200 mg per day as calcium carbonate, within 3 months of therapy, premenopausal women 18-45 years) is given as 48%.
In the case of `C=C1/C(=C\C=C2/CCC[C@]3(C)[C@@H]([C@H](C)CCCC(C)(C)O)CC[C@@H]23)C[C@@H](O)C[C@@H]1O` [Calcitriol], the “effect in psoriatic plaques” value (psoriatic plaques) is given as “decrease keratinocyte proliferation, normalize keratinocyte differentiation and decrease immune activation in plaques”.
